Assay results reported in patent US6699477B2, “EBV CTL epitopes” (The Council of the Queensland Institute of Medical Research, priority 1996, dated 2004).
Like-named read-outs stand apart in the source and are kept apart here.

Key:
EBV [1] = settings: Table 4; cited from earlier work
HLA [2] = settings: Table 4; cited from earlier work
CTL culture B5 = test: Identification of specific peptide target, overlapping peptides on autologous PHA blasts; assay type: cell-based, human; settings: peptides preincubated with autologous PHA blasts
Experimental: (§1) Limiting dilution cultures were established by distributing PBL from the fourth bleed in 24 replicates at 2×10^4 cells per well in 96-well round-bottomed microtitre plates. Doubling dilutions were made to a final concentration of 1.6×10^2 per well. Approximately 1×10^4 γ-irradiated (8000 rads) autologous type B (EW-Ag-876) LCLs were added to each well as both feeder and stimulator cells to a total volume of 100 μl. Cultures were fed on days 4 and 7 with 50 μl of T cell growth medium and assayed on day 10 or later. The plates were subcultured and maintained in T cell growth medium and stimulated with γ-irradiated EW-Ag-876 LCLs. Initial assays were against type A and type B LCLs and subsequently against peptide-coated PHA-blasts or LCLs. Precursor frequencies were determined by a modification of the method of maximum likelihood estimation (11). Assessment of peptide specific activity. For determination of the antigenic specificity at the peptide level, a set of 20-mer overlapping peptides of EBNA-6B (residues 100-1069 (46)) was prepared using a kit and software distributed by Chiron Mimotopes (Chiron Corporation, Sydney, Australia). Nine-mer and 10-mer overlapping peptides with unblocked C and N termini were manufactured by Chiron Mimotopes. Labelled target cells were preincubated with overlapping peptides in the 96-well trays for 30-60 minutes before adding effectors. […]

B-type epitope CTL = test: HLA-restriction CTL assay of type B-specific epitope, cell lines with or without specific peptide; assay type: cell-based, human; settings: QNGALAINTF specific CTLs, peptide-incubated targets of known HLA specificity
Experimental: as §1

EBV [3] = test: EBV type of CTL epitopes of the invention (Table 3); assay type: cell-based, Epstein-Barr virus
T cell precursors = test: Limiting dilution cultures, epitope specific precursor frequency; settings: PBL of donor stimulated by autologous type B cells; assayed 12 weeks later
HLA [4] = settings: Table 3

Sequence: AVLLHEESM
- EBV Type (EBV [1]): Type 1

Sequence: CLGGLLTMV
- EBV Type (EBV [1]): Type 1 & 2
- HLA Rest. (HLA [2]): HLA A2

Sequence: DEPASTEPVHDQLL
- EBV Type (EBV [1]): Type 1

Sequence: DTPLIPLTIF
- EBV Type (EBV [1]): Type 1

Sequence: EENLLDFVRF
- EBV Type (EBV [1]): Type 1 & 2

Sequence: FLRGRAYGL
- EBV Type (EBV [1]): Type 1
- HLA Rest. (HLA [2]): HLA B8

Sequence: HLAAQGMAY
- EBV Type (EBV [1]): Type 1

Sequence: KEHVIQNAF
- EBV Type (EBV [1]): Type 1

Sequence: LPGPQVTAVLLHEES
- EBV Type (EBV [1]): Type 1

Sequence: NPTQAPVIQLVHAVY
- EBV Type (EBV [1]): Type 1

Sequence: QNAARTLNTF [reference compound]
- Recognition by type B specific culture B5 (CTL culture B5): nonreactive

Sequence: QNGALAINTF
- HLA restriction (B-type epitope CTL): B62 (B15)-restricted
- Recognition by type B specific culture B5 (CTL culture B5): minimal epitope
- EBV Type (EBV [3]): Type 2
- Frequency (epitope specific T cell precursors) (T cell precursors): 1/16395

Sequence: QPRAPIRPI
- EBV Type (EBV [1]): Type 1 & 2
- HLA Rest. (HLA [2]): HLA B7

Sequence: QVKWRMTTL
- EBV Type (EBV [3]): Type 2

Sequence: RLRAEAGVK
- EBV Type (EBV [1]): Type 1
- HLA Rest. (HLA [2]): HLA A3

Sequence: RPPIFIRRL
- EBV Type (EBV [1]): Type 1
- HLA Rest. (HLA [2]): HLA B7

Sequence: RRIYDLIKL
- EBV Type (EBV [3]): Type 1

Sequence: RRRWRRLTV
- EBV Type (EBV [1]): Type 1

Sequence: RYSIFFDY
- EBV Type (EBV [1]): Type 1

Sequence: SVRDRLARL
- EBV Type (EBV [1]): Type 1 & 2
- HLA Rest. (HLA [2]): HLA A2

Sequence: TSLYNLRRGTALA
- EBV Type (EBV [1]): Type 1 & 2
- HLA Rest. (HLA [2]): HLA DR1

Sequence: TVFYNIPPMPL
- EBV Type (EBV [1]): Type 1
- HLA Rest. (HLA [2]): HLA DQ2

Sequence: TYSAGIVQI
- EBV Type (EBV [3]): Type 1

Sequence: VEITPYEPTG
- EBV Type (EBV [3]): Type 1

Sequence: VEITPYEPTW
- EBV Type (EBV [3]): Type 1

Sequence: VEITPYKPTW
- EBV Type (EBV [1]): Type 1

Sequence: VELTPYKPTW
- EBV Type (EBV [3]): Type 1

Sequence: VFSDGRVAC
- EBV Type (EBV [3]): Type 1

Sequence: VPAPAGPIV
- EBV Type (EBV [3]): Type 1

Sequence: VPAPPVGPIV
- EBV Type (EBV [3]): Type 1

Sequence: VSFIEFVGW
- EBV Type (EBV [1]): Type 1

Sequence: VSSDGLVAC
- EBV Type (EBV [3]): Type 1

Sequence: VSSDGQVAC
- EBV Type (EBV [3]): Type 1

Sequence: VSSDGRVAC
- EBV Type (EBV [3]): Type 1

Sequence: VSSDGRVPC
- EBV Type (EBV [3]): Type 1

Sequence: VSSDGRVVC
- EBV Type (EBV [3]): Type 1
- HLA restriction (HLA [4]): HLA A29

Sequence: VSSEGRVAC
- EBV Type (EBV [3]): Type 1
